Measurements published in PubChem BioAssay (NCI).
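Grown in 96-well plates, cells were treated for 48 hours with each compound at five concentrations. Insufficient inhibition: endpoint recorded as highest concentration tested. TGI: concentration producing complete growth inhibition.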

How the values were obtained:
Experiment in all cases: inhibition of tumour cell growth, NCI panel, 48 h
NCI-H460 lung = tested on: NCI-H460 lung
NCI-H226 lung = tested on: NCI-H226 lung
LOX IMVI melanoma = tested on: LOX IMVI melanoma
LXFL 529 NSCLC = tested on: LXFL 529 NSCLC
M14 melanoma = tested on: M14 melanoma
IGROV1 ovarian = tested on: IGROV1 ovarian
SK-MEL-5 melanoma = tested on: SK-MEL-5 melanoma
MALME-3M melanoma = tested on: MALME-3M melanoma
DMS 114 small cell lung = tested on: DMS 114 small cell lung
ACHN renal = tested on: ACHN renal
UACC-62 melanoma = tested on: UACC-62 melanoma
SNB-75 CNS = tested on: SNB-75 CNS
OVCAR-5 ovarian = tested on: OVCAR-5 ovarian
COLO 205 colon = tested on: COLO 205 colon
SNB-78 CNS = tested on: SNB-78 CNS
U251 CNS = tested on: U251 CNS
HCC-2998 colon = tested on: HCC-2998 colon
HOP-62 NSCLC = tested on: HOP-62 NSCLC
CAKI-1 renal = tested on: CAKI-1 renal
RXF 393 renal = tested on: RXF 393 renal
KM12 colon = tested on: KM12 colon
M19-MEL melanoma = tested on: M19-MEL melanoma
SK-MEL-28 melanoma = tested on: SK-MEL-28 melanoma
NCI-H522 lung = tested on: NCI-H522 lung
UO-31 renal = tested on: UO-31 renal
SF-295 CNS = tested on: SF-295 CNS
HCT-15 colon = tested on: HCT-15 colon
DLD-1 colon = tested on: DLD-1 colon
HCT-116 colon = tested on: HCT-116 colon
HOP-18 NSCLC = tested on: HOP-18 NSCLC
OVCAR-8 ovarian = tested on: OVCAR-8 ovarian
K-562 leukemia = tested on: K-562 leukemia
SF-539 CNS = tested on: SF-539 CNS
SNB-19 CNS = tested on: SNB-19 CNS
SN12C renal = tested on: SN12C renal
OVCAR-3 ovarian = tested on: OVCAR-3 ovarian
A549 NSCLC = tested on: A549 NSCLC
CCRF-CEM leukemia = tested on: CCRF-CEM leukemia
SK-MEL-2 melanoma = tested on: SK-MEL-2 melanoma
EKVX NSCLC = tested on: EKVX NSCLC
KM20L2 colon = tested on: KM20L2 colon
SK-OV-3 ovarian = tested on: SK-OV-3 ovarian
SW-620 colon = tested on: SW-620 colon
MOLT-4 leukemia = tested on: MOLT-4 leukemia
HOP-92 NSCLC = tested on: HOP-92 NSCLC
HT29 colon = tested on: HT29 colon
A498 renal = tested on: A498 renal
SF-268 CNS = tested on: SF-268 CNS
OVCAR-4 ovarian = tested on: OVCAR-4 ovarian
NCI-H23 lung = tested on: NCI-H23 lung
XF 498 CNS = tested on: XF 498 CNS
786-0 renal = tested on: 786-0 renal
TK-10 renal = tested on: TK-10 renal
HL-60(TB) leukemia = tested on: HL-60(TB) leukemia
UACC-257 melanoma = tested on: UACC-257 melanoma
SR leukemia = tested on: SR leukemia
DMS 273 small cell lung = tested on: DMS 273 small cell lung
RPMI-8226 leukemia = tested on: RPMI-8226 leukemia
RXF-631 renal = tested on: RXF-631 renal

NNC(=S)N/N=C(/C(=O)Nc1cc(Cl)ccc1Cl)C1C(=O)Nc2ccccc2S1=O (stereo unspecified)
TGI (NCI-H460 lung): > 100 µM | TGI (NCI-H226 lung): > 100 µM | TGI (LOX IMVI melanoma): > 100 µM | TGI (LXFL 529 NSCLC): > 100 µM | TGI (M14 melanoma): > 100 µM | TGI (IGROV1 ovarian): > 100 µM | TGI (SK-MEL-5 melanoma): > 100 µM | TGI (MALME-3M melanoma): > 100 µM | TGI (DMS 114 small cell lung): > 100 µM | TGI (ACHN renal): > 100 µM | TGI (UACC-62 melanoma): > 100 µM | TGI (SNB-75 CNS): > 100 µM | TGI (OVCAR-5 ovarian): > 100 µM | TGI (COLO 205 colon): > 100 µM | TGI (SNB-78 CNS): > 100 µM | TGI (U251 CNS): > 100 µM | TGI (HCC-2998 colon): > 100 µM | TGI (HOP-62 NSCLC): > 100 µM | TGI (CAKI-1 renal): > 100 µM | TGI (RXF 393 renal): > 100 µM | TGI (KM12 colon): > 100 µM | TGI (M19-MEL melanoma): > 100 µM | TGI (SK-MEL-28 melanoma): > 100 µM | TGI (NCI-H522 lung): > 100 µM | TGI (UO-31 renal): > 100 µM | TGI (SF-295 CNS): > 100 µM | TGI (HCT-15 colon): > 100 µM | TGI (DLD-1 colon): > 100 µM | TGI (HCT-116 colon): > 100 µM | TGI (HOP-18 NSCLC): > 100 µM | TGI (OVCAR-8 ovarian): > 100 µM | TGI (K-562 leukemia): > 100 µM | TGI (SF-539 CNS): > 100 µM | TGI (SNB-19 CNS): > 100 µM | TGI (SN12C renal): > 100 µM | TGI (OVCAR-3 ovarian): > 100 µM | TGI (A549 NSCLC): > 100 µM | TGI (CCRF-CEM leukemia): > 100 µM | TGI (SK-MEL-2 melanoma): > 100 µM | TGI (EKVX NSCLC): > 100 µM | TGI (KM20L2 colon): > 100 µM | TGI (SK-OV-3 ovarian): > 100 µM | TGI (SW-620 colon): > 100 µM | TGI (MOLT-4 leukemia): > 100 µM | TGI (HOP-92 NSCLC): > 100 µM | TGI (HT29 colon): > 100 µM | TGI (A498 renal): > 100 µM | TGI (SF-268 CNS): > 100 µM | TGI (OVCAR-4 ovarian): > 100 µM | TGI (NCI-H23 lung): > 100 µM | TGI (XF 498 CNS): > 100 µM | TGI (786-0 renal): > 100 µM | TGI (TK-10 renal): > 100 µM | TGI (HL-60(TB) leukemia): > 100 µM | TGI (UACC-257 melanoma): > 100 µM | TGI (SR leukemia): > 100 µM

COc1ccc(N=Nc2c(-c3ccccc3)nn(C(=O)CC(=O)Nc3cccc(Cl)c3)c2-c2ccccc2)cc1
TGI (NCI-H460 lung): > 100 µM | TGI (NCI-H226 lung): 68.1 µM | TGI (LOX IMVI melanoma): > 100 µM | TGI (LXFL 529 NSCLC): > 100 µM | TGI (IGROV1 ovarian): > 100 µM | TGI (SK-MEL-5 melanoma): > 100 µM | TGI (MALME-3M melanoma): > 100 µM | TGI (DMS 114 small cell lung): > 100 µM | TGI (ACHN renal): > 100 µM | TGI (UACC-62 melanoma): > 100 µM | TGI (SNB-75 CNS): > 100 µM | TGI (OVCAR-5 ovarian): > 100 µM | TGI (COLO 205 colon): > 100 µM | TGI (U251 CNS): > 100 µM | TGI (HCC-2998 colon): 80.4 µM | TGI (DMS 273 small cell lung): > 100 µM | TGI (HOP-62 NSCLC): > 100 µM | TGI (CAKI-1 renal): > 100 µM | TGI (KM12 colon): > 100 µM | TGI (M19-MEL melanoma): > 100 µM | TGI (SK-MEL-28 melanoma): > 100 µM | TGI (NCI-H522 lung): > 100 µM | TGI (UO-31 renal): > 100 µM | TGI (SF-295 CNS): > 100 µM | TGI (HCT-15 colon): > 100 µM | TGI (DLD-1 colon): > 100 µM | TGI (HCT-116 colon): > 100 µM | TGI (HOP-18 NSCLC): > 100 µM | TGI (OVCAR-8 ovarian): > 100 µM | TGI (K-562 leukemia): > 100 µM | TGI (SF-539 CNS): > 100 µM | TGI (SNB-19 CNS): > 100 µM | TGI (SN12C renal): > 100 µM | TGI (OVCAR-3 ovarian): > 100 µM | TGI (A549 NSCLC): > 100 µM | TGI (CCRF-CEM leukemia): > 100 µM | TGI (SK-MEL-2 melanoma): > 100 µM | TGI (EKVX NSCLC): > 100 µM | TGI (KM20L2 colon): > 100 µM | TGI (SK-OV-3 ovarian): > 100 µM | TGI (SW-620 colon): > 100 µM | TGI (MOLT-4 leukemia): > 100 µM | TGI (HOP-92 NSCLC): > 100 µM | TGI (HT29 colon): > 100 µM | TGI (A498 renal): > 100 µM | TGI (SF-268 CNS): > 100 µM | TGI (OVCAR-4 ovarian): > 100 µM | TGI (NCI-H23 lung): > 100 µM | TGI (XF 498 CNS): > 100 µM | TGI (786-0 renal): > 100 µM | TGI (TK-10 renal): > 100 µM | TGI (HL-60(TB) leukemia): > 100 µM | TGI (UACC-257 melanoma): > 100 µM | TGI (RPMI-8226 leukemia): > 100 µM

O=C(c1ccccc1)c1ccc(OCCOc2ccc(Nc3ccccc3)cc2)cc1
TGI (NCI-H460 lung): > 100 µM | TGI (NCI-H226 lung): > 100 µM | TGI (LOX IMVI melanoma): > 100 µM | TGI (LXFL 529 NSCLC): > 100 µM | TGI (M14 melanoma): > 100 µM | TGI (IGROV1 ovarian): > 100 µM | TGI (RXF-631 renal): 82.8 µM | TGI (SK-MEL-5 melanoma): > 100 µM | TGI (MALME-3M melanoma): 71 µM | TGI (DMS 114 small cell lung): > 100 µM | TGI (ACHN renal): 84.3 µM | TGI (UACC-62 melanoma): > 100 µM | TGI (SNB-75 CNS): 33.4 µM | TGI (OVCAR-5 ovarian): > 100 µM | TGI (COLO 205 colon): > 100 µM | TGI (SNB-78 CNS): > 100 µM | TGI (U251 CNS): 57.1 µM | TGI (HCC-2998 colon): > 100 µM | TGI (DMS 273 small cell lung): > 100 µM | TGI (HOP-62 NSCLC): 81.2 µM | TGI (CAKI-1 renal): > 100 µM | TGI (RXF 393 renal): 67.3 µM | TGI (KM12 colon): > 100 µM | TGI (M19-MEL melanoma): > 100 µM | TGI (SK-MEL-28 melanoma): > 100 µM | TGI (NCI-H522 lung): 53.3 µM | TGI (UO-31 renal): > 100 µM | TGI (SF-295 CNS): 93.9 µM | TGI (HCT-15 colon): > 100 µM | TGI (DLD-1 colon): > 100 µM | TGI (HCT-116 colon): > 100 µM | TGI (HOP-18 NSCLC): > 100 µM | TGI (OVCAR-8 ovarian): > 100 µM | TGI (K-562 leukemia): > 100 µM | TGI (SF-539 CNS): > 100 µM | TGI (SNB-19 CNS): > 100 µM | TGI (SN12C renal): > 100 µM | TGI (OVCAR-3 ovarian): > 100 µM | TGI (A549 NSCLC): > 100 µM | TGI (CCRF-CEM leukemia): > 100 µM | TGI (SK-MEL-2 melanoma): > 100 µM | TGI (EKVX NSCLC): > 100 µM | TGI (KM20L2 colon): > 100 µM | TGI (SK-OV-3 ovarian): 64.4 µM | TGI (SW-620 colon): > 100 µM | TGI (MOLT-4 leukemia): > 100 µM | TGI (HOP-92 NSCLC): 73.5 µM | TGI (A498 renal): 79 µM | TGI (SF-268 CNS): > 100 µM | TGI (OVCAR-4 ovarian): 54.8 µM | TGI (NCI-H23 lung): > 100 µM | TGI (XF 498 CNS): 48.4 µM | TGI (786-0 renal): > 100 µM | TGI (TK-10 renal): 84.3 µM | TGI (UACC-257 melanoma): > 100 µM | TGI (SR leukemia): > 100 µM
